Patent publication US20130072505A1, “6,9-Disubstituted Purine Derivatives and Their Use for Treating Skin” (priority 2006, published 2013)

Assays:
[1] = test system: chorioallantoic membrane of White Leghorn eggs; test: Chorioallantoic Membrane Vascular Assay (ocular irritation)
Description: The chorioallantoic membrane of White Leghorn eggs, incubated for 14 days, were dosed with 40 μl of the test compound (and three lower concentrations in distilled water) and then further incubated for about 30 minutes at which time the chorioallantoic membrane was examined for vascular hemorrhage, capillary injection, and/or the presence of ghost vessels.

[2] = test system: Chinese hamster ovary (CHO) cells; test: In Vitro Chromosome Aberration Screening Assay; format: cell-based; settings: 0.272 to 272 μg/ml; absence and presence of S9
Description: 6-Furfurylamino-9-(2-tetrahydropyranyl)purine was tested in the chromosome aberration screening assay using Chinese hamster ovary (CHO) cells in both the absence and presence of an Acroclor-induced S9 activation system to evaluate its clastogenic potential. DMSO was used as the solvent and the dose rate ranged from 0.272 to 272 μg/ml.

[3] = test system: Female SKH-1 hairless mice; test: topical skin anti-aging treatment, hairless mouse model; format: in vivo; settings: 3 weeks
Source text: The safety and efficacy of the 6,9-disubstituted purine derivatives of this invention as topical skin anti-aging treatments were examined using the hairless mouse model (a well established model for studying the treatments of photoaging). Female SKH-1 hairless mice (5 weeks old, 20-25 grams, Charles River Laboratories, Wilmington, Mass.) were individually housed in filter-top cages, and acclimated for 5-7 days after delivery. […] Water and mouse chow are provided ad libitum. The experimental groups (6 mice per group) included the following treatments: (1) Untreated control; (2) Vehicle control (MillCreek Lotion); […] The various treatments were applied daily (Monday-Friday) for 3 weeks to the dorsal skin (about 2 cm×2 cm) of the hairless mice at a dosage rate of about 20 mg. At baseline (prior to the 1st treatment), and weekly, the dorsal skin was measured for transepidermal water loss (TEWL), skin moisture content, and skin elasticity. […] This instrument was equipped with dual probes which are placed on the skin surface and a quantitative measurement taken of the respective parameters and the measurements recorded on an integrated computer. […] The slides were weakly counter stained in Mayer's hematoxylin and scored under a light microscope for the number of BrdU-positive cells per mm of epidermis for each section. […]

[4] = test system: breast carcinoma MCF-7; test: in vitro cytotoxic activity, Calcein AM microtiter assay; format: cell-based; settings: Homo sapiens, MCF7; 72 hours; highest concentration 166.7 μM
Description: (§1) In vitro cytotoxic activity of several of the 6,9-disubstituted purine derivatives of this invention was determined using a microtiter assay with Calcein AM and a panel of cell lines of different histogenetic and species origin; kinetin was also examined as a control. Because only metabolically active cells cleave Calcein AM (tetraacetoxymethyl ester of calcein), the intracellular concentration of calcein corresponds to the number of vital cells in the culture.
(§2) The following cell lines were used: human osteosarcoma (HOS); breast carcinoma MCF-7; human myeloid leukemia K-562; and mouse fibroblasts NIH3T3. The cells were maintained in Nunc/Corning 80 cm^2 plastic tissue culture flasks and cultured in cell culture medium (DMEM with 5 g/l glucose, 2 mM glutamine, 100 U/ml penicillin, 100 μg/ml streptomycin, 10% fetal calf serum, and sodium bicarbonate).
(§3) The cell suspensions were prepared and diluted according to the particular cell type and the expected target cell density (2.500-30.000 cells per well based on cell growth characteristics) were added by pipette (80 μl) into 96/well microtiter plates. Inoculates were allowed a pre-incubation period of 24 hours at 37° C. and 5% CO2 for stabilization. Four-fold dilutions of the intended test concentration were added at time zero in 20 μl aliquots to the microtiter plate wells. The test compounds were generally evaluated at six 4-fold dilutions. The highest well concentration used in the present study was 166.7 μM. All samples were examined in triplicates. Incubations of cells with the tested compounds was for 72 hours at 37° C., in 5% CO2 atmosphere and 100% humidity. At the end of the incubation period, Calcein AM was added to a final concentration of 1 μg/ml incubated for 1 hour. Fluorescence intensity (FI) was measured with a Labsystem FIA Reader Fluoroscan Ascent (UK). The cell survival (GI50) was calculated using the following equation: GI50=([…])/(mean FIcontrol well−mean FIblank)×100%. The GI50 value, the drug concentration lethal to 50% of the cells, was calculated from the obtained dose response curves.

[5] = test system: human osteosarcoma (HOS); test: as above; format: cell-based; settings: 72 hours, highest concentration 166.7 μM
Description: as §1, §2, §3

[6] = test system: human myeloid leukemia K-562; test: as above; format: cell-based; settings: K562, 72 hours, highest concentration 166.7 μM
Description: as §1, §2, §3

[7] = test system: mouse fibroblasts NIH3T3; test: as above; format: cell-based; settings: NIH3T3, 72 hours, highest concentration 166.7 μM, read-out: GI50 NIH-3T3
Description: as §1, §2, §3

[8] = test system: normal, human-derived epidermal keratinocytes (NHEK); test: Epiderm MTT Viablity Assay; format: cell-based
Description: Using MatTek Corporation's EpiDerm™ System (consisting of normal, human-derived epidermal keratinocytes (NHEK) which have been cultured to form a multilayered, highly differentiated model of the human epidermis), it was determined that 6-furfurylamino-9-(2-tetrahydropyranyl)purine would be expected to be classified as non-irritating.

## c1coc(CNc2ncnc3c2ncn3C2CCCCO2)c1 (stereo not shown) [6-furfurylamino-9-(2-tetrahydropyranyl)purine]
[1]
  ocular irritation classification: non-irritant
[1]; about 30 minutes, <1% irritant, >3% non-irritant
  RC50 (calculated concentration producing a positive reaction in 50% of treated eggs): 105%
[2]
  induction of structural and numerical chromosome aberrations: negative for the induction of structural and numerical chromosome aberrations
[3]; topical daily (Monday-Friday), Grade 0=no response to Grade 6=necrosis
  erythema (irritation) score: < 1 Grade
[3]; topical daily
  Skin Moisture Content (skin conductance): one of the highest increases in skin moisture
[4]
  GI50: > 167 µM
[5]
  GI50: > 167 µM
[6]
  GI50: > 167 µM
[7]
  GI50: > 167 µM
[8]
  irritation classification, EpiDerm System: non-irritating
